{"source": "patent US7994163B2", "about": "“6-substituted-2,3,4,5-tetrahydro-1H-benzo[d]azepines as 5-HT2C receptor agonists” (Eli Lilly and Company, priority 2005, dated 2011)", "key": {"Wistar rats [1]": {"system": "Wistar rats", "details": "general statement on standards; cited from earlier work"}, "male NIH Swiss mice [2]": {"system": "male NIH Swiss mice", "assay": "Nestlet shredding", "type": "in vivo", "details": "with motor effects (rotorod test)", "excerpt": "Mice naturally will construct nests of material available in their living environment. Since this behavior is obsessive in nature, it has been used to model OCD (Xia Li, Denise Morrow and Jeffrey M. Witkin, “Decreases in nestlet shredding of mice by serotonin uptake inhibitors: comparison with marble burying”, Psychopharmacology, submitted Jul. 14, 2003). House experimentally-naïve male, NIH Swiss mice (Harlan Sprague-Dawley, Indianapolis, Ind.) weighing between 28-35 g in groups of 12 for at least three days prior to testing in a vivarium with a 12 h light/dark cycle. Conduct experiments during the light cycle in an experimental room with normal overhead fluorescent lighting. Dose mice with vehicle or test compound and after a specified pretreatment interval (generally 30 min.), place the mice individually in a 17×28×12 cm high plastic tub with about 5 mm sawdust shavings on the floor along with a pre-weighed multi-ply gauze pad (51 mm square). After 30 min., weigh the remainder of the gauze pad not removed by the mouse. Determine the weight of the gauze used for nestlet construction by subtraction. Compare the results for test compound treated mice to the results for vehicle control treated mice with Dunnett's test.\nClinically effective OCD treatment standard compounds suppress nestlet shredding at doses that are devoid of motor-impairing effects as measured by the rotorod test. […]"}, "Wistar rats [3]": {"system": "Wistar rats", "assay": "Schedule-induced polydipsia", "details": "rat, in vivo", "method": "Maintain Wistar rats on a food restricted diet (to maintain 85% free feeding weight), but with free access to water. Train the rats in a behavioral testing chamber to press a lever to receive a food pellet under a fixed interval schedule, such that the rats are rewarded with a 45 mg food pellet the first time they press a lever after a 120 second interval has elapsed. The fixed interval is then reset to 120 seconds and the process repeated. Thus, during a 90 min. test session, the rats can earn a maximum of 45 pellets. The behavioral chamber is also equipped with a water bottle that is weighed before and after the session to determine the amount of water consumed.\nAdminister test compounds on Tuesdays and Fridays. Determine control day performances on Thursdays. Administer compounds either orally at 60 min. before the beginning of a test session, or subcutaneously at 20 min. before the beginning of a test session. Compare the rates of lever pressing and water consumption for each animal's performance during sessions after test compound treatment with that animal's performance during control sessions, expressed as a percent of the control rate. Average the individual percent of control rates for each dose and calculate the standard error of the mean. […]"}, "male NIH Swiss mice [4]": {"system": "male NIH Swiss mice", "assay": "Marble burying assay (with rotorod)", "type": "in vivo", "details": "with rotorod performance", "method": "House experimentally-naïve male, NIH Swiss mice (Harlan Sprague-Dawley, Indianapolis, Ind.) weighing between 28-35 g in groups of 12 for at least three days prior to testing in a vivarium with 12 h light and dark cycles. Conduct experiments during the light cycle in a dimly lit experimental testing room. Dose mice with vehicle or test compound and, after a specified pretreatment interval (generally 30 min.), place each mouse individually on a rotorod (Ugo Basile 7650) operating at a speed of 6 revolutions/min. and observe for falling. After 2 min. on the rotorod, place the mice individually in a 17×28×12 cm high plastic tub with 5 mm sawdust shavings on the floor that are covered with 20 blue marbles (1.5 cm diameter) placed in the center. After 30 min., count the number of marbles buried (⅔ covered with sawdust). Assess the test compound's effect on marble burying with Dunnett's test and the effect on rotorod performance by Fisher's exact test.\nClinically effective standard compounds suppress marble burying at doses that are devoid of motor-impairing effects as measured on the rotorod. The in vivo efficacy of 5HT2C compounds at the 5HT2C receptor is confirmed by the prevention of effects of the 5HT2C agonists on marble burying by co-administration of the 5HT2C receptor antagonist, 6-chloro-5-methyl-N-{2-[(2-methylpyridin-3-yl-oxy)pyridin-5-yl]aminocarbonyl}-2,3-dihydroindole."}}, "note": "Where a name gives a salt, the structure may show the parent alone."}
{"smiles": "CN(C)CCCN1c2ccccc2CCc2ccc(Cl)cc21", "note": "[chlomipramine]", "values": [{"measurement": "schedule-induced polydipsia, clinically effective OCD treatment standard compounds", "setting": "Wistar rats [1]", "value": "suppress schedule-induced polydipsia without producing notable changes in motor patterns, food intake, or behavior the following day"}]}
{"smiles": "CNCCC(Oc1ccc(C(F)(F)F)cc1)c1ccccc1", "note": "(stereo not shown) [fluoxetine]", "values": [{"measurement": "schedule-induced polydipsia, clinically effective OCD treatment standard compounds", "setting": "Wistar rats [1]", "value": "suppress schedule-induced polydipsia without producing notable changes in motor patterns, food intake, or behavior the following day"}]}
{"smiles": "Clc1ccc2c(c1CSc1ncc[nH]1)CCNCC2", "note": "(as salt: phosphate) (hydrate or solvate)", "values": [{"measurement": "melting point", "value": "243 to 245", "unit": "°C"}]}
{"smiles": "C[C@H](N)Cc1ccccc1", "note": "[d-amphetamine]", "values": [{"measurement": "nestlet shredding", "setting": "male NIH Swiss mice [2]", "value": "decreases nestlet shredding only at doses that produce motoric side effects"}, {"measurement": "Effect of 5-HT2C antagonist co-administration on suppression of polydipsia", "setting": "Wistar rats [3]", "value": "not prevented by the 5HT2C receptor antagonist"}, {"measurement": "schedule-induced polydipsia (excessive drinking)", "setting": "Wistar rats [3]", "value": "decreases excessive drinking only at behaviorally stimulating doses"}]}
{"smiles": "CN(C)CCCN1c2ccccc2Sc2ccc(Cl)cc21", "note": "[chlorpromazine]", "values": [{"measurement": "marble burying behavior", "setting": "male NIH Swiss mice [4]", "value": "decrease marble burying only at doses that also disrupt rotorod performance"}]}
